Where two headings read alike, the source gives them in different places. Each block holds one compound with its values, some of them ahead of it.
Experiments:
S. saprophyticus 662 = assay: checkerboard titration, gemifloxacin and amoxicillin (MIC, FIC); assay type: cell-based, Staphylococcus saprophyticus
Description: The concentration range tested varied for each drug/organism combination to encompass the MIC endpoints of the individual components. […] The last well (H) in column 12 was used as a positive growth control well, containing only medium and test isolate.
The bacteria were diluted to a 0.5 McFarland standard and then further diluted 1/50. Each well was inoculated with 25 μl of the isolate to give a final inoculum density of approximately 5×10^5 cfu/ml. […] After inoculation, the plates were covered with a 96 well microtitre plate lid and incubated at 35° C. in ambient air for 20–24 hours. A 10 μl aliquot of the inoculum was plated on trypticase soy agar containing 5% sheep blood to determine the purity of the final test inoculum.
2) S. saprophyticus 662 was obtained from the SmithKline Beecham Anti-Infectives Research Culture Collection and stored at −80° C. in 10% glycerol. Before testing, the isolate was passaged onto agar plates (trypticase soy agar containing 5% sheeps blood) from the frozen stock for two consecutive days. Cation adjusted Mueller Hinton broth (BBL, Cockeysville, Md.) was used for the isolate.
The combined effect of gemifloxacin and amoxicillin was investigated in S. saprophyticus 662 by using the checkerboard titration method described in Example 1.

E. coli ATCC 25922 = assay: checkerboard titration, gemifloxacin and cefaclor (MIC, FIC); assay type: cell-based, Escherichia coli
Description: (§1) Checkerboard microtitre broth dilution plates were prepared using the Hamilton MicroLab AT Plus system (Reno, Nev.). Two-fold serial dilutions (50 μl) of cefotaxime were made in columns 1 through 11 of a microtitre plate. Two-fold serial dilutions of gemifloxacin were prepared manually and the MicroLab AT Plus was used to dispense 25 μl of gemifloxacin at each concentration into rows A through G of the microtitre plate. The concentration range tested varied for each drug/organism combination to encompass the MIC endpoints of the individual components. Column 12 contained two fold serial dilutions of gemifloxacin only, and row H contained two fold serial dilutions of cefotaxie only. The last well (H) in column 12 was used as a positive growth control well, containing only medium and test isolate.
(§2) The bacteria were diluted to a 0.5 McFarland standard and then further diluted 1/50. Each well was inoculated with 25 μl of the isolate to give a final inoculum density of approximately 5×10^5 cfu/ml. The MicroLab AT Plus 2 was used to add the inoculum to the microtitre plates. After inoculation, the plates were covered with a 96 well microtitre plate lid and incubated at 35° C. in ambient air for 20–24 hours. A 10 μl aliquot of the inoculum was plated on trypticase soy agar containing 5% sheep blood to determine the purity of the final test inoculum.
(§3) Following incubation, a microtitre mirror reader (Cooke Instruments Ltd., England) was used to assist in determining the microdilution MIC endpoints. The MIC was determined as the lowest concentration of compound that inhibited visible growth of the organism.
(§4) The Fractional Inhibitory Concentrations (FICs) were calculated using the following formula: (A)/(MICA)+(B)/(MICB)=FICA+FICB=FICIndex wherein: • A is the MIC of drug A in the presence of drug B • B is the MIC of drug B in the presence of drug A • MIC A is the MIC of the organism to drug A alone • MIC B is the MIC of the organism to drug B alone • FIC A is the fractional inhibitory concentration of drug A • FIC B is the fractional inhibitory concentration of drug B
(§5) The FIC indices were interpreted using the following criteria: • ≦0.5=Synergy • >0.5–1=Additive • >1–2=Indifference • >2=Antagonism
3) E. coli ATCC 25922 was obtained from the SmithKline Beecham Anti-Infectives Research Culture Collection and stored at −80° C. in 10% glycerol. Before testing, the isolate was passaged onto agar plates (trypticase soy agar containing 5% sheeps blood) from the frozen stock for two consecutive days. […]
The combined effect of gemifloxacin and cefaclor was investigated in E. coli ATCC 25922 by using the checkerboard titration method described in Example 1. FIC Indices were calculated and interpreted as in Example 1.

E. faecalis ATCC 29212 = assay: checkerboard titration, gemifloxacin and cefotaxime (MIC, FIC); assay type: cell-based, Enterococcus faecalis
Description: 1) The combined effect of gemifloxacin and cefotaxime was investigated in E. faecalis by using a checkerboard titration method. Evaluation for synergistic activity was carried out by calculation of fractional inhibitory concentrations (FICs) according to the method of Eliopoulos et al (1996, Antimicrobial Combinations, Antibiotics in Laboratory Medicine, Victor Lorian, 4th Edition, pp 337–338, Baltimore, Md., Williams and Wilkins).
E. faecalis ATCC 29212 was obtained from the SmithKline Beecham Anti-Infectives Research Culture Collection and stored at −80° C. in 10% glycerol. Before testing, the isolate was passaged onto agar plates (trypticase soy agar containing 5% sheeps blood) from the frozen stock for two consecutive days. Cation adjusted Mueller Hinton broth (BBL, Cockeysville, Md.) was used for the isolate.
as §1, §2, §3, §4, §5

[1] = tested on: clinically isolated P. aeruginosa; assay: checkerboard titration, gemifloxacin or ciprofloxacin with ceftazidime, 27 clinical isolates (Example 4); assay type: cell-based, Pseudomonas aeruginosa; conditions: for FICB: FIC of ceftazidime; for MIC: Pseudomonas aeruginosa
Description: The test organisms were clinical isolates collected in Korea. Organisms were frozen at −70 C prior to testing. Testing was done by the checkerboard method in 96-well plates using Mueller-Hinton broth. […] Ceftazidime was also dispensed alone in the first row in the first column. Test strains of P. aeruginosa were grown for 18 h in Mueller-Hinton broth, and then these overnight cultures were diluted with the same fresh medium to the density of approximately 10^7 CFU/mL. The bacterial concentrations were determined by measuring optical density or turbidity of the suspension and were verified by standard colony counts on antibiotic-free agar plates. A diluted bacterial solution was applied to 96-well plates containing serially diluted antimicrobial agents to yield 10^4 CFU per spot. Plates were incubated aerobically overnight.
(§6) Minimal inhibitory concentrations (MICs) for each separate drug were determined. For wells along the growth-no growth interface, synergy was determined by calculating the Fractional Inhibitory Concentration (FIC) index. The Fractional Inhibitory Concentration (FIC) indices were calculated using the following formula: FICindex=FICA+FICB=[A]/MICA+[B]/MICB • Wherein: • FICA(or B), is the FIC of drug A (or B) MICA (or B) is the MIC of the organism to drug A (or B) • A (or B) is concentration of drug A (or B) that is the lowest inhibitory concentration
(§7) The FIC indices were interpreted using the following criteria: • ≦0.5=Synergy • >0.5–1.0=Additive • >1.0–4.0=Indifference • >4.0=Antagonism

[2] = tested on: clinically isolated P. aeruginosa strains; assay: checkerboard method, gemifloxacin or ciprofloxacin with ceftazidime, 6 clinical isolates (Example 5); assay type: cell-based, Pseudomonas aeruginosa; conditions: for FICB: FIC of ceftazidime; for MIC: Pseudomonas aeruginosa
Description: as §6, §7
The test organisms were clinical isolates collected in Korea. Organisms were frozen at −70 C. prior to testing. […] Gemifloxacin or ciprofloxacin solution was dispensed alone in the first row and combined with ceftazidime in the remaining rows. Ceftazidime as also dispensed alone in the first row in the first column. Test strains of P. aeruginosa were grown for 18 h in Mueller-Hinton broth, and then these overnight cultures were diluted with the same fresh medium to the density of approximately 10^7 CFU/mL. The bacterial concentrations were determined by measuring optical density or turbidity of the suspension and were verified by standard colony counts on antibiotic-free agar plates. A diluted bacterial solution was applied to 96-well plates containing serially diluted antimicrobial agents to yield 5×10^5 CFU/mL. Plates were incubated at 35 C for 18 hours.
MICs for each separate drug were determined, and for wells along the growth-no growth interface, synergy was determined by calculating FIC Indices as in Example 4. FIC Indices were calculated and interpreted as in Example 4.

[3] = drug alone, no unit in this line (other lines μg/ml)

MIC (S. saprophyticus 662; Staphylococcus saprophyticus, 662, in presence of gemifloxacin 0.004 μg/ml, read-out: amoxicillin MIC): 0.125 µg/mL
SMILES: CC1(C)S[C@@H]2[C@H](NC(=O)[C@H](N)c3ccc(O)cc3)C(=O)N2[C@H]1C(=O)O [amoxicillin]

MIC (E. coli ATCC 25922; Escherichia coli, ATCC25922, in presence of gemifloxacin 0.002 μg/ml, read-out: cefaclor MIC): 1 µg/mL
cefaclor MIC (E. coli ATCC 25922; [3]): 4
SMILES: N[C@@H](C(=O)N[C@@H]1C(=O)N2C(C(=O)O)=C(Cl)CS[C@H]12)c1ccccc1 [cefaclor]

amoxicillin MIC (S. saprophyticus 662; [3]): 0.5
MIC (E. faecalis ATCC 29212; Enterococcus faecalis, ATCC29212, in presence of gemifloxacin 0.008 μg/ml, read-out: cefotaxime MIC): 16 µg/mL
cefotaxime MIC (E. faecalis ATCC 29212; [3]): 256
SMILES: CO/N=C(\C(=O)N[C@@H]1C(=O)N2C(C(=O)O)=C(COC(C)=O)CS[C@H]12)c1csc(N)n1 [cefotaxime]

MIC ([1]; P. aeruginosa 6003, drug alone, read-out: ceftazidime MIC): 4 µg/mL
MIC ([1]; P. aeruginosa 6003, in combination with gemifloxacin, read-out: Cceftazidime MIC): 1 µg/mL
MIC ([1]; P. aeruginosa 6021, drug alone, read-out: ceftazidime MIC): 4 µg/mL
MIC ([1]; P. aeruginosa 6021, in combination with gemifloxacin, read-out: Cceftazidime MIC): 1 µg/mL
MIC ([1]; P. aeruginosa 6030, drug alone, read-out: ceftazidime MIC): 4 µg/mL
MIC ([1]; P. aeruginosa 6030, in combination with gemifloxacin, read-out: Cceftazidime MIC): 1 µg/mL
MIC ([1]; P. aeruginosa 6045, drug alone, read-out: ceftazidime MIC): 64 µg/mL
MIC ([1]; P. aeruginosa 6045, in combination with gemifloxacin, read-out: Cceftazidime MIC): 8 µg/mL
MIC ([1]; P. aeruginosa 6047, drug alone, read-out: ceftazidime MIC): 64 µg/mL
MIC ([1]; P. aeruginosa 6047, in combination with gemifloxacin, read-out: Cceftazidime MIC): 2 µg/mL
MIC ([1]; P. aeruginosa 6113, drug alone, read-out: ceftazidime MIC): 8 µg/mL
MIC ([1]; P. aeruginosa 6113, in combination with gemifloxacin, read-out: Cceftazidime MIC): 2 µg/mL
MIC ([1]; P. aeruginosa 6123, drug alone, read-out: ceftazidime MIC): 4 µg/mL
MIC ([1]; P. aeruginosa 6123, in combination with gemifloxacin, read-out: Cceftazidime MIC): 1 µg/mL
MIC ([1]; P. aeruginosa 6173, drug alone, read-out: ceftazidime MIC): 4 µg/mL
MIC ([1]; P. aeruginosa 6173, in combination with gemifloxacin, read-out: Cceftazidime MIC): 1 µg/mL
MIC ([1]; P. aeruginosa P032, drug alone, read-out: ceftazidime MIC): 4 µg/mL
MIC ([1]; P. aeruginosa P032, in combination with gemifloxacin, read-out: Cceftazidime MIC): 1 µg/mL
MIC ([1]; P. aeruginosa P036, drug alone, read-out: ceftazidime MIC): 32 µg/mL
MIC ([1]; P. aeruginosa P036, in combination with gemifloxacin, read-out: Cceftazidime MIC): 4 µg/mL
MIC ([1]; P. aeruginosa P039, drug alone, read-out: ceftazidime MIC): 8 µg/mL
MIC ([1]; P. aeruginosa P039, in combination with gemifloxacin, read-out: Cceftazidime MIC): 2 µg/mL
MIC ([2]; P. aeruginosa 6140, drug alone, read-out: ceftazidime MIC): 32 µg/mL
MIC ([2]; P. aeruginosa 6140, in combination with gemifloxacin, read-out: Cceftazidime MIC): 8 µg/mL
MIC ([2]; P. aeruginosa 6168, drug alone, read-out: ceftazidime MIC): 32 µg/mL
MIC ([2]; P. aeruginosa 6168, in combination with gemifloxacin, read-out: Cceftazidime MIC): 2 µg/mL
MIC ([2]; P. aeruginosa P003, drug alone, read-out: ceftazidime MIC): 32 µg/mL
MIC ([2]; P. aeruginosa P003, in combination with gemifloxacin, read-out: Cceftazidime MIC): 2 µg/mL
SMILES: CC(C)(O/N=C(\C(=O)N[C@@H]1C(=O)N2C(C(=O)[O-])=C(C[n+]3ccccc3)CS[C@H]12)c1csc(N)n1)C(=O)O [ceftazidime]
FICB ([1]; P. aeruginosa 6003): 0.25
FICB ([1]; P. aeruginosa 6021): 0.25
FICB ([1]; P. aeruginosa 6030): 0.25
FICB ([1]; P. aeruginosa 6045): 0.13
FICB ([1]; P. aeruginosa 6047): 0.03
FICB ([1]; P. aeruginosa 6113): 0.25
FICB ([1]; P. aeruginosa 6123): 0.25
FICB ([1]; P. aeruginosa 6173): 0.25
FICB ([1]; P. aeruginosa P032): 0.25
FICB ([1]; P. aeruginosa P036): 0.13
FICB ([1]; P. aeruginosa P039): 0.25
FICB ([2]; P. aeruginosa 6140): 0.25
FICB ([2]; P. aeruginosa 6168): 0.06
FICB ([2]; P. aeruginosa P003): 0.06

— patent US7169792B2, “Method of treating bacterial infections using gemifloxacin or a salt thereof and a β-lactam antibiotic” (priority 2002, dated 2007)
